# Assay results published in US6737383B1, “Herbicidal oxadiazolidines” (priority 1999, dated 2004).
# How the values were obtained:
# giant foxtail = assay: Test B pre/postemergence giant foxtail; assay type: in vivo, Setaria faberii
# Method in brief: (§1)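 Test chemicals in a non-phytotoxic solvent mixture with surfactant were sprayed preemergence onto planted seeds and postemergence onto plants 2 to 18 cm tall (1- to 4-leaf stage). After twelve to sixteen days in a greenhouse, injury was visually rated against untreated controls from 0 (no effect) to 10 (complete control).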
# rice = assay: Test B flood test rice; assay type: in vivo, Oryza sativa
# Method in brief: (§2)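 Plants were grown to the 2-leaf stage before treatment with test chemical, then held in a greenhouse for twelve to sixteen days. Injury was visually rated against untreated controls on a 0–10 scale, where 0 is no effect and 10 is complete control.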
# cocklebur = assay: Test B pre/postemergence cocklebur; assay type: in vivo, Xanthium strumarium
# Method in brief: as §1
# velvetleaf = assay: Test B pre/postemergence velvetleaf; assay type: in vivo, Abutilon theophrasti
# Method in brief: as §1
# blackgrass = assay: Test B pre/postemergence blackgrass; assay type: in vivo, Alopecurus myosuroides
# Method in brief: as §1
# morningglory = assay: Test B pre/postemergence morningglory; assay type: in vivo, Ipomoea hederacea
# Method in brief: as §1
# bamyardgrass = assay: Test B flood test barnyardgrass; assay type: in vivo, Echinochloa crus-galli
# Method in brief: as §2
# crabgrass = assay: Test B pre/postemergence crabgrass; assay type: in vivo, Digitaria sanguinalis
# Method in brief: as §1
# pigweed = assay: Test B pre/postemergence pigweed; assay type: in vivo, Amaranthus retroflexus
# Method in brief: as §1
# corn = assay: Test B pre/postemergence corn; assay type: in vivo, Zea mays
# Method in brief: as §1
# wild oat = assay: Test B pre/postemergence wild oat; assay type: in vivo, Avena fatua
# Method in brief: as §1
# sugar beet = assay: Test B pre/postemergence sugar beet; assay type: in vivo, Beta vulgaris
# Method in brief: as §1
# surinam grass = assay: Test B pre/postemergence surinam grass; assay type: in vivo, Brachiaria decumbens
# Method in brief: as §1
# rape = assay: Test B pre/postemergence rape; assay type: in vivo, Brassica napus
# Method in brief: as §1
# smallflower flatsedge = assay: Test B flood test smallflower flatsedge; assay type: in vivo, Cyperus difformis
# Method in brief: as §2
# [1] = Postemergence, Rate 250 g/ha, scale 0 to 10
# [2] = Postemergence, Rate 500 g/ha, scale of 0 to 10 where 0 is no effect and 10 is complete control
# [3] = Preemergence, Rate 62 g/ha, scale 0 to 10 (0 no effect, 10 complete control)
# [4] = Preemergence, Rate 125 g/ha, scale of 0 to 10 where 0 is no effect and 10 is complete control
# [5] = Preemergence, Rate 250 g/ha, scale 0 to 10, 0 is no effect, 10 is complete control
# [6] = Preemergence, Rate 500 g/ha, scale 0 to 10, 0 is no effect, 10 is complete control
# [7] = Rate 62 g/ha, Postemergence, scale of 0 to 10 where 0 is no effect and 10 is complete control
# [8] = Rate 125 g/ha, Postemergence, scale 0 to 10, 0 is no effect, 10 is complete control
# [9] = Postemergence block (flood test species), Rate 250 g/ha, scale 0 to 10
# [10] = Postemergence section (flood test species), Rate 500 g/ha, scale of 0 to 10 where 0 is no effect and 10 is complete control
# [11] = Rate 125 g/ha, Postemergence section (flood test species), scale 0 to 10, 0 is no effect, 10 is complete control
smiles,measurement,setting,value
CCN(C(=O)n1oc(=O)n(C2CCCCCC2)c1=O)C1CCCCC1 [Compound 429],Giant foxtail plant response rating,giant foxtail; [1],2
same,Giant foxtail plant response rating,giant foxtail; [2],4
same,"Plant response rating, Giant foxtail",giant foxtail; [3],3
same,"Plant response rating, Giant foxtail",giant foxtail; [4],10
same,Giant foxtail plant response rating,giant foxtail; [5],10
same,Giant foxtail plant response rating,giant foxtail; [6],10
same,Giant foxtail plant response rating,giant foxtail; [7],0
same,Giant foxtail plant response rating,giant foxtail; [8],1
same,Rice plant response rating,rice; [9],0
same,Rice plant response rating,rice; [10],0
same,Rice plant response rating,rice; [11],0
same,Cocklebur plant response rating,cocklebur; [1],0
same,Cocklebur plant response rating,cocklebur; [2],0
same,"Plant response rating, Cocklebur",cocklebur; [3],0
same,"Plant response rating, Cocklebur",cocklebur; [4],0
same,Cocklebur plant response rating,cocklebur; [5],0
same,Cocklebur plant response rating,cocklebur; [6],0
same,Cocklebur plant response rating,cocklebur; [7],0
same,Cocklebur plant response rating,cocklebur; [8],0
same,Velvetleaf plant response rating,velvetleaf; [1],2
same,Velvetleaf plant response rating,velvetleaf; [2],2
same,"Plant response rating, Velvetleaf",velvetleaf; [3],0
same,"Plant response rating, Velvetleaf",velvetleaf; [4],0
same,Velvetleaf plant response rating,velvetleaf; [5],0
same,Velvetleaf plant response rating,velvetleaf; [6],0
same,Velvetleaf plant response rating,velvetleaf; [8],0
same,Blackgrass plant response rating,blackgrass; [1],3
same,Blackgrass plant response rating,blackgrass; [2],3
same,"Plant response rating, Blackgrass",blackgrass; [3],0
same,"Plant response rating, Blackgrass",blackgrass; [4],0
same,Blackgrass plant response rating,blackgrass; [5],0
same,Blackgrass plant response rating,blackgrass; [6],3
same,Blackgrass plant response rating,blackgrass; [7],0
same,Blackgrass plant response rating,blackgrass; [8],2
same,Morningglory plant response rating,morningglory; [1],2
same,Morningglory plant response rating,morningglory; [2],3
same,"Plant response rating, Morningglory",morningglory; [3],0
same,"Plant response rating, Morningglory",morningglory; [4],0
same,Morningglory plant response rating,morningglory; [5],0
same,Morningglory plant response rating,morningglory; [6],0
same,Morningglory plant response rating,morningglory; [8],1
same,Barnyardgrass plant response rating,bamyardgrass; [9],1
same,Barnyardgrass plant response rating,bamyardgrass; [10],7
same,Barnyardgrass plant response rating,"bamyardgrass; Rate 62 g/ha, Postemergence (flood test species), scale of 0 to 10 where 0 is no effect and 10 is complete control",0
same,Barnyardgrass plant response rating,bamyardgrass; [11],0
same,Crabgrass plant response rating,crabgrass; [1],2
same,Crabgrass plant response rating,crabgrass; [2],3
same,"Plant response rating, Crabgrass",crabgrass; [3],7
same,"Plant response rating, Crabgrass",crabgrass; [4],10
same,Crabgrass plant response rating,crabgrass; [5],10
same,Crabgrass plant response rating,crabgrass; [6],10
same,Crabgrass plant response rating,crabgrass; [7],0
same,Crabgrass plant response rating,crabgrass; [8],1
same,Redroot pigweed plant response rating,pigweed; [1],0
same,Redroot pigweed plant response rating,pigweed; [2],0
same,"Plant response rating, Redroot pigweed",pigweed; [3],0
same,"Plant response rating, Redroot pigweed",pigweed; [4],0
same,Redroot pigweed plant response rating,pigweed; [5],0
same,Redroot pigweed plant response rating,pigweed; [6],0
same,Redroot pigweed plant response rating,pigweed; [8],0
same,Corn plant response rating,corn; [1],0
same,Corn plant response rating,corn; [2],0
same,"Plant response rating, Corn",corn; [3],0
same,"Plant response rating, Corn",corn; [4],0
same,Corn plant response rating,corn; [5],0
same,Corn plant response rating,corn; [6],0
same,Corn plant response rating,corn; [7],0
same,Corn plant response rating,corn; [8],0
same,Wild oats plant response rating,wild oat; [1],0
same,Wild oats plant response rating,wild oat; [2],0
same,"Plant response rating, Wild oats",wild oat; [3],0
same,"Plant response rating, Wild oats",wild oat; [4],0
same,Wild oats plant response rating,wild oat; [5],0
same,Wild oats plant response rating,wild oat; [6],0
same,Wild oats plant response rating,wild oat; [8],0
same,Sugarbeets plant response rating,sugar beet; [1],0
same,Sugarbeets plant response rating,sugar beet; [2],0
same,"Plant response rating, Sugarbeets",sugar beet; [3],0
same,"Plant response rating, Sugarbeets",sugar beet; [4],0
same,Sugarbeets plant response rating,sugar beet; [5],0
same,Sugarbeets plant response rating,sugar beet; [6],0
same,Sugarbeets plant response rating,sugar beet; [8],0
same,B. signalgrass plant response rating,"surinam grass; Postemergence, Rate 250 g/ha, scale 0 to 10, 0 no effect, 10 complete control",0
same,B. signalgrass plant response rating,surinam grass; [2],0
same,"Plant response rating, B. signalgrass",surinam grass; [3],0
same,"Plant response rating, B. signalgrass",surinam grass; [4],0
same,B. signalgrass plant response rating,surinam grass; [5],0
same,B. signalgrass plant response rating,surinam grass; [6],4
same,B. signalgrass plant response rating,surinam grass; [7],0
same,B. signalgrass plant response rating,surinam grass; [8],0
same,Rape plant response rating,rape; [1],0
same,Rape plant response rating,rape; [2],0
same,"Plant response rating, Rape",rape; [3],0
same,"Plant response rating, Rape",rape; [4],0
same,Rape plant response rating,rape; [5],0
same,Rape plant response rating,rape; [6],0
same,Rape plant response rating,rape; [8],0
same,S. Flatsedge plant response rating,smallflower flatsedge; [9],3
same,S. Flatsedge plant response rating,smallflower flatsedge; [10],9
same,S. Flatsedge plant response rating,smallflower flatsedge; [11],0
